Experimental data: article PMC5514153, “Targeting PTPRZ inhibits stem cell-like properties and tumorigenicity in glioblastoma cells” (Scientific Reports, 2017)

Assays:
hPTPRM = molecular target: T1, hPTPRM (Homo sapiens, UniProt P28827); assay: In vitro PTPase assay (DiFMUP), PTPRM; format: biochemical; settings: 60-min preincubation
T1 construct: Recombinant proteins corresponding to the entire intracellular regions (ICRs) of PTPRZ1, PTPRA, and PTPRM; made in house; host or cells: baculovirus-silkworm expression system
Protocol: Figure 4 NAZ2329, an allosteric inhibitor of R5 RPTP subfamily members. (A) Structure of NAZ2329. (B) Effect of preincubation of NAZ2329 on its inhibitory activity against PTPRZ. Recombinant human PTPRZ1 enzyme (the whole intracellular region) was premixed with NAZ2329 for the indicated times and followed by addition of a fluorogenic DiFMUP (non-specific PTP substrate, 6,8-difluoro-4-methylumbiliferyl phosphate) to measure PTP inhibitory activity. (C) Time dependence. The PTPRZ1 enzyme was added to the inhibitor–substrate mixture, and the inhibitory activity was determined at each time point relative to the vehicle control. (D) Reversibility of inhibition. […] The mixture was then 20-fold diluted, and recovered PTP activity was expressed as the relative activity compared with the vehicle-treated enzyme. […] PTPRZ1 enzymes were preincubated with NAZ2329 for 60 min, and the PTP activity was measured using DiFMUP. […]
Recombinant proteins corresponding to the entire intracellular regions (ICRs) of PTPRZ1, PTPRA, and PTPRM were expressed using a baculovirus-silkworm expression system, and purified as described. The ICRs of PTPRG, PTPRS, and PTPRB and the catalytic domains of PTPN1 and PTPN6 were expressed as glutathione-S-transferase (GST) fusion proteins from each pGEX plasmid in Escherichia coli strain BL21 (ref. [6]). […]

C6 xenograft = assay: C6 subcutaneous xenograft nude mouse model; format: in vivo; settings: nude mice, i.p. twice per week; NAZ2329 45 µmol (22.5 mg)/kg, TMZ 50 mg/kg; vehicle 17 days
Protocol: Figure 10 Antitumor effects of NAZ2329 on the C6 mouse xenograft model. (A) Nude mice were subcutaneously implanted with C6 cells (5 × 10^6 cells), and tumor size was monitored until the criteria were met (>150 mm^3). At this time, mice were randomly divided into 4 treatment groups. DMSO as the vehicle control (n = 7), NAZ2329 (45 µmol (22.5 mg)/kg body weight, n = 9), temozolomide (TMZ, 50 mg/kg, n = 9), and the combination of NAZ2329 (45 µmol/kg) with TMZ (50 mg/kg) (n = 9) were administered intraperitoneally twice per week until the humane endpoint (>3,000 mm^3 tumor size or 40 days after the treatment). Tumor growth in each animal and the number of days required to reach a tumor volume of 3,000 mm^3 are shown in the graph. Five mice were sacrificed due to tumor necrosis (shown by gray symbols in the graph), and two mice unexpectedly died suddenly during the observation period (black symbols in the graph).
Parental or Ptprz-knockdown C6 cells (5 × 10^6 cells) suspended in a volume of 100 µl were subcutaneously injected into the left hind limbs of BALB/c-nu/nu mice (females, 4 weeks old mice were purchased from Japanese Charles River Co. Ltd.). Tumor growth was measured with calipers and calculated by the formula: volume = length × width × width × 0.5, as previously described. The drug treatment initiated when the tumor size reached 150 mm^3. […]

hPTPRZ1 (D1) = molecular target: T2, hPTPRZ1 (D1) (Homo sapiens, UniProt P23471); assay: In vitro PTPase assay (DiFMUP), PTPRZ1 D1 domain; format: biochemical; settings: first PTP domain fragment
T2 construct: human PTPRZ1-D1 (amino acid residues, 1,698-2,000)
T2 sequence (P23471 1698-2000 limits assumed): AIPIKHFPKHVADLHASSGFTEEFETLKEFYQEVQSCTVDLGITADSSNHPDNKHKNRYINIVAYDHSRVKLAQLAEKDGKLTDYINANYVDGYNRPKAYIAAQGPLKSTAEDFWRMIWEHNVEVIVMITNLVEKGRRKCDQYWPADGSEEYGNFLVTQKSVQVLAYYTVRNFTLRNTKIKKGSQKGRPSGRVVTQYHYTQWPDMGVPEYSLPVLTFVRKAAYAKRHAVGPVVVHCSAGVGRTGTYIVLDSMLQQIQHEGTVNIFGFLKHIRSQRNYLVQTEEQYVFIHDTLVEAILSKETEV

T1 sequence (P28827 765-1452 limits assumed): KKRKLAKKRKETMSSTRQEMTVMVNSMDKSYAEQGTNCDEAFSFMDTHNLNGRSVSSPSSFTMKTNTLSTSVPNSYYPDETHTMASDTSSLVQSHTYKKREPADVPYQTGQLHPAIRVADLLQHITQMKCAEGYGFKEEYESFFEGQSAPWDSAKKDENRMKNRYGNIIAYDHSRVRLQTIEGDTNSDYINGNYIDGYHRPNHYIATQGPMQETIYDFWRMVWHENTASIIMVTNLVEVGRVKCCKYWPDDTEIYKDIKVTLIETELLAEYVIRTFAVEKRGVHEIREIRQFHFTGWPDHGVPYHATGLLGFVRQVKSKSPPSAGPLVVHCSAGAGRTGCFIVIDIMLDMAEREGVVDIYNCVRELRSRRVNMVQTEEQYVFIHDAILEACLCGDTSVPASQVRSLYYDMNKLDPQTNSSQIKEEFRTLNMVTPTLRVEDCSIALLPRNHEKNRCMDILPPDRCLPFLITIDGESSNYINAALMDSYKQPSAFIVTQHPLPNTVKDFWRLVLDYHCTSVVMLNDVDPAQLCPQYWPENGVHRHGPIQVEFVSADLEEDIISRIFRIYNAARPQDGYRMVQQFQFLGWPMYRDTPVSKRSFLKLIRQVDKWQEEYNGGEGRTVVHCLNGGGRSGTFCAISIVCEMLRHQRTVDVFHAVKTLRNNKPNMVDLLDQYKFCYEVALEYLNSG

IC50 (hPTPRM): 56.7 µM
IC50 (hPTPRZ1 (D1)): 1.1 µM
SMILES: CCOc1ccc(C(F)(F)F)cc1CSc1ccsc1C(=O)NS(=O)(=O)c1ccccc1 [NAZ2329]
median day for the tumor size to reach 3,000 mm^3 (C6 xenograft): 25 days
